Measurements as given in ChEMBL document CHEMBL1201862, “PubChem BioAssay data set” (2004).
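Following 48 hours of exposure in 96-well plates, responses at five concentrations were used to interpolate endpoints linearly. GI50 = concentration required for 50% inhibition of growth.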 The source made the active and inactive calls. Cut-off read from the data, not from the text of the source: active = GI50 up to about 1.1 µM and inactive = higher.

Key:
Test in all cases: NCI-60 cell line screen, 48 h
786-0 = tested on: 786-0
A498 = tested on: A498
A549 = tested on: A549
ACHN = tested on: ACHN
CAKI-1 = tested on: CAKI-1
CCRF-CEM = tested on: CCRF-CEM
COLO 205 = tested on: COLO 205
DLD-1 = tested on: DLD-1
DMS-273 = tested on: DMS-273
EKVX = tested on: EKVX
HCC 2998 = tested on: HCC 2998
HCT-116 = tested on: HCT-116
HCT-15 = tested on: HCT-15
HL-60 = tested on: HL-60
HOP-18 = tested on: HOP-18
HOP-62 = tested on: HOP-62
HOP-92 = tested on: HOP-92
HT-29 = tested on: HT-29
IGROV-1 = tested on: IGROV-1
K562 = tested on: K562
KM-20L2 = tested on: KM-20L2
KM12 = tested on: KM12
LOX IMVI = tested on: LOX IMVI
LXFL 529 = tested on: LXFL 529
M14 = tested on: M14
M19-MEL = tested on: M19-MEL
MOLT-4 = tested on: MOLT-4
Malme-3M = tested on: Malme-3M
NCI-H226 = tested on: NCI-H226
NCI-H23 = tested on: NCI-H23
NCI-H460 = tested on: NCI-H460
NCI-H522 = tested on: NCI-H522
OVCAR-3 = tested on: OVCAR-3
OVCAR-4 = tested on: OVCAR-4
OVCAR-5 = tested on: OVCAR-5
OVCAR-8 = tested on: OVCAR-8
RPMI-8226 = tested on: RPMI-8226
RXF 393 = tested on: RXF 393
SF-268 = tested on: SF-268
SF-295 = tested on: SF-295
SF-539 = tested on: SF-539
SK-MEL-28 = tested on: SK-MEL-28
SK-MEL-2 = tested on: SK-MEL-2
SK-MEL-5 = tested on: SK-MEL-5
SK-OV-3 = tested on: SK-OV-3
SN12C = tested on: SN12C
SNB-19 = tested on: SNB-19
SNB-75 = tested on: SNB-75
SNB-78 = tested on: SNB-78
SR = tested on: SR
SW-620 = tested on: SW-620
TK-10 = tested on: TK-10
U-251 = tested on: U-251
UACC-257 = tested on: UACC-257
UACC-62 = tested on: UACC-62
UO-31 = tested on: UO-31
DMS-114 = tested on: DMS-114
XF498 = tested on: XF498

Compound: O=C(/C=C/c1ccc(OCC(=O)N2CCN(c3ccccc3)CC2)cc1)c1ccccc1
- GI50 (786-0): 14.6 µM (inactive)
- GI50 (A498): > 56.8 µM (inactive)
- GI50 (A549): 44.4 µM (inactive)
- GI50 (ACHN): 19.7 µM (inactive)
- GI50 (CAKI-1): 93.3 µM (inactive)
- GI50 (CCRF-CEM): 2.84 µM (inactive)
- GI50 (COLO 205): 26.1 µM (inactive)
- GI50 (DLD-1): 7.31 µM (inactive)
- GI50 (DMS-273): 2.99 µM (inactive)
- GI50 (EKVX): 34.7 µM (inactive)
- GI50 (HCC 2998): 45.4 µM (inactive)
- GI50 (HCT-116): 11.7 µM (inactive)
- GI50 (HCT-15): 7.5 µM
- GI50 (HL-60): 4.95 µM (inactive)
- GI50 (HOP-18): > 50 µM (inactive)
- GI50 (HOP-62): 32.8 µM (inactive)
- GI50 (HOP-92): 29 µM (inactive)
- GI50 (HT-29): 4.33 µM (inactive)
- GI50 (IGROV-1): 32.9 µM (inactive)
- GI50 (K562): 3.18 µM (inactive)
- GI50 (KM-20L2): 8.95 µM (inactive)
- GI50 (KM12): 4.52 µM (inactive)
- GI50 (LOX IMVI): 3.68 µM (inactive)
- GI50 (LXFL 529): 19.9 µM (inactive)
- GI50 (M14): 29.8 µM (inactive)
- GI50 (M19-MEL): 11.3 µM (inactive)
- GI50 (MOLT-4): 3.05 µM (inactive)
- GI50 (Malme-3M): 15 µM (inactive)
- GI50 (NCI-H226): 16.9 µM (inactive)
- GI50 (NCI-H23): 17.8 µM (inactive)
- GI50 (NCI-H460): > 46.1 µM (inactive)
- GI50 (NCI-H522): 3.6 µM (inactive)
- GI50 (OVCAR-3): 13.2 µM (inactive)
- GI50 (OVCAR-4): 14.3 µM (inactive)
- GI50 (OVCAR-5): 48.8 µM (inactive)
- GI50 (OVCAR-8): 10.9 µM (inactive)
- GI50 (RPMI-8226): 3.75 µM (inactive)
- GI50 (RXF 393): 7.85 µM (inactive)
- GI50 (SF-268): 26.7 µM (inactive)
- GI50 (SF-295): 23.3 µM (inactive)
- GI50 (SF-539): 16.9 µM (inactive)
- GI50 (SK-MEL-28): 16 µM (inactive)
- GI50 (SK-MEL-2): > 26.5 µM (inactive)
- GI50 (SK-MEL-5): 7.57 µM (inactive)
- GI50 (SK-OV-3): 38.1 µM (inactive)
- GI50 (SN12C): 19.7 µM (inactive)
- GI50 (SNB-19): 20.1 µM (inactive)
- GI50 (SNB-75): 17.9 µM (inactive)
- GI50 (SNB-78): > 44.5 µM (inactive)
- GI50 (SR): 2.72 µM (inactive)
- GI50 (SW-620): 3.13 µM (inactive)
- GI50 (TK-10): 45.7 µM (inactive)
- GI50 (U-251): 7.14 µM (inactive)
- GI50 (UACC-257): 17.1 µM (inactive)
- GI50 (UACC-62): 17.8 µM (inactive)
- GI50 (UO-31): 15.2 µM (inactive)

Compound: CC(C)(C)CC(C)(C)c1cc2c(O)c(c1)Cc1cc(C(C)(C)CC(C)(C)C)cc(c1O)Cc1cc(C(C)(C)CC(C)(C)C)cc(c1O)Cc1cc(C(C)(C)CC(C)(C)C)cc(c1O)Cc1cc(C(C)(C)CC(C)(C)C)cc(c1O)C2
- GI50 (786-0): > 100 µM (inactive)
- GI50 (A549): > 100 µM (inactive)
- GI50 (ACHN): > 100 µM (inactive)
- GI50 (CCRF-CEM): > 100 µM (inactive)
- GI50 (COLO 205): > 100 µM (inactive)
- GI50 (DLD-1): > 100 µM (inactive)
- GI50 (DMS-114): > 100 µM (inactive)
- GI50 (DMS-273): > 100 µM (inactive)
- GI50 (EKVX): > 100 µM (inactive)
- GI50 (HCC 2998): > 100 µM (inactive)
- GI50 (HCT-116): > 100 µM (inactive)
- GI50 (HCT-15): > 100 µM
- GI50 (HL-60): > 100 µM (inactive)
- GI50 (HOP-62): > 100 µM (inactive)
- GI50 (HOP-92): > 100 µM (inactive)
- GI50 (HT-29): > 100 µM (inactive)
- GI50 (IGROV-1): > 100 µM (inactive)
- GI50 (K562): > 100 µM (inactive)
- GI50 (KM-20L2): > 100 µM (inactive)
- GI50 (KM12): > 100 µM (inactive)
- GI50 (LXFL 529): > 100 µM (inactive)
- GI50 (M14): > 100 µM (inactive)
- GI50 (M19-MEL): > 100 µM (inactive)
- GI50 (MOLT-4): > 100 µM (inactive)
- GI50 (Malme-3M): > 100 µM (inactive)
- GI50 (NCI-H23): > 100 µM (inactive)
- GI50 (NCI-H460): > 100 µM (inactive)
- GI50 (NCI-H522): > 100 µM (inactive)
- GI50 (OVCAR-3): > 100 µM (inactive)
- GI50 (OVCAR-4): > 100 µM (inactive)
- GI50 (OVCAR-5): > 100 µM (inactive)
- GI50 (OVCAR-8): > 100 µM (inactive)
- GI50 (RPMI-8226): > 100 µM (inactive)
- GI50 (RXF 393): > 100 µM (inactive)
- GI50 (SF-268): > 100 µM (inactive)
- GI50 (SF-295): > 100 µM (inactive)
- GI50 (SF-539): > 100 µM (inactive)
- GI50 (SK-MEL-28): > 100 µM (inactive)
- GI50 (SK-MEL-2): > 100 µM (inactive)
- GI50 (SK-MEL-5): > 100 µM (inactive)
- GI50 (SN12C): > 100 µM (inactive)
- GI50 (SNB-19): > 100 µM (inactive)
- GI50 (SNB-75): > 100 µM (inactive)
- GI50 (SNB-78): > 100 µM (inactive)
- GI50 (SW-620): > 100 µM (inactive)
- GI50 (TK-10): > 100 µM (inactive)
- GI50 (U-251): > 100 µM (inactive)
- GI50 (UACC-257): > 100 µM (inactive)
- GI50 (UACC-62): > 100 µM (inactive)
- GI50 (UO-31): > 100 µM (inactive)
- GI50 (XF498): > 100 µM (inactive)
